MIC data for 23 molecules are collected here from US6057447A, “Quinoline sulfide derivatives” (Zenyaku Kogyo Kabushiki Kaisha, priority 1996, dated 2000).

Converted amounts (≈) assume the structure as drawn.

What all share (format): cell-based
For assay [1], the system named is Helicobacter pylori standard strain ATCC 43526 (NCTC 11916). Description: Antibacterial Test 1: MIC against Helicobacter pylori, agar plate dilution method (anaerobic MIC method). Conditions: 72 h, Hp ATCC 43526, agar plate dilution, 37° C., 3 days.
The test system of assay [2] is B. subtilis PCI 219. As to the kind of experiment: Antibacterial Test 2: MIC, agar dilution method (aerobic MIC method). Conditions: Bacillus subtilis, PCI219. The protocol: (§1) Then, tested were antibacterial activities of the typical compounds of the present invention against gram-positive and -negative bacteria other than Hp. MICs of the typical compounds of the present invention were determined in substantial accordance with agar dilution method (aerobic MIC method) based on standard method of the Japan Society Chemotherapy.
(§2) The respective test compound were dissolved in dimethyl sulfoxide (DMSO) and serially diluted twofold to prepare solutions of the compounds with concentration of 0.05-100 μg/ml. The solutions of the compounds were respectively added to sensitive-disk agar medium-N (manufactured by NISSUI SEIYAKU) to prepare agar plates for determination.
(§3) The below-mentioned strains freezingly conserved at -135° C. were thawed in a warm bath (40° C.), cultured in a sensitivity-determining bouillon at 37° C. for 18-20 hours, and then diluted with the above-mentioned medium to prepare about 1.0×10^6 CFU/ml of bacterial suspension.
(§4) Inoculation was made by 5 μl by multi-inoculator (manufactured by SAKUMA SEISAKUSHO). Culturing was made under the same conditions as those of the pre-culturing and the MIC (unit: μg/ml) was determined by observing whether the bacteria grew or not.
On the technique in general: Agar dilution tests growth on a series of plates holding different concentrations.

Assay [3] concerns E. coli NIHJ JC-2. The assay is described as above. Conditions: Escherichia coli, NIHJJC2. Here is the method: as §1, §2, §3, §4
Assay [4] deals with E. faecalis RIMD 3336001. The assay is described as above. The settings on record: Enterococcus faecalis, RIMD3336001. The protocol: as §1, §2, §3, §4
The subject of assay [5] is K. pneumoniae PCI 602. The description is as above. Conditions: Klebsiella pneumoniae, PCI602. The protocol: as §1, §2, §3, §4
In assay [6] the test system is M. luteus ATCC 9341. The assay is described as above. The settings on record: Micrococcus luteus, ATCC9341. The protocol:
as §1, §2, §3, §4

The subject of assay [7] is P. aeruginosa IFO 3445. The description is as above. Conditions: Pseudomonas aeruginosa, IFO3445. The protocol:
as §1, §2, §3, §4

In assay [8] the test system is S. aureus FDA 209P. The assay is described as above. The settings on record: Staphylococcus aureus, FDA209P. Here is the method: as §1, §2, §3, §4

As usually defined, the MIC is the least concentration at which growth counts as inhibited. Turning to `O=C(CSc1ccnc2ccccc12)c1ccc(OCc2ccccc2)cc1` [Compound 1, 4-[2-(4-Benzyloxyphenyl)-2-oxoethylthio]quinoline], the MIC was 0.05 µg/mL (≈ 0.13 µM) in assay [1]; above 100 µg/mL in assay [2]; above 100 µg/mL in assay [3]; above 100 µg/mL in assay [4]; above 100 µg/mL in assay [5]; above 100 µg/mL in assay [6]. Besides, the MIC in assay [7] and in assay [8] was above 100 µg/mL each time.
For the molecule `CSc1ccc2c(SCc3ccc(N(C)C)cc3)ccnc2c1` [Compound 31, 4-(4-Dimethylaminobenzylthio)-7-methylthioquinoline], the MIC is 0.1 µg/mL (≈ 0.294 µM) in assay [1]; above 100 µg/mL in assay [2]; above 100 µg/mL in assay [3]; above 100 µg/mL in assay [4]; above 100 µg/mL in assay [5]; above 100 µg/mL in assay [6]. The MIC in assay [7] and in assay [8] was above 100 µg/mL throughout.
Regarding `O=C(CSc1ccnc2ccccc12)c1ccc(NCc2ccccc2)cc1` [Compound 23, 4-[2-(4-Benzylaminophenyl)-2-oxoethylthio]quinoline], the minimal inhibitory concentration (MIC) in assay [1] is 0.025 µg/mL (≈ 0.065 µM); in assay [2], above 100 µg/mL; in assay [3], above 100 µg/mL; in assay [4] it was above 100 µg/mL; in assay [5], above 100 µg/mL; in assay [6], above 100 µg/mL. For the same molecule, the MIC in assay [7] and in assay [8] was above 100 µg/mL each time.
Take `CC[C@H]1OC(=O)[C@H](C)[C@@H](O[C@H]2C[C@@](C)(OC)[C@@H](O)[C@H](C)O2)[C@H](C)[C@@H](O[C@@H]2O[C@H](C)C[C@H](N(C)C)[C@H]2O)[C@](C)(OC)C[C@@H](C)C(=O)[C@H](C)[C@@H](O)[C@]1(C)O` [clarithromycin, reference compound]: the minimum inhibitory concentration (MIC) in assay [1] was 0.025 µg/mL (≈ 0.0334 µM); in assay [2], 0.2 µg/mL (≈ 0.267 µM); in assay [3], 100 µg/mL (≈ 134 µM); in assay [4], 0.39 µg/mL (≈ 0.521 µM); in assay [5], 6.25 µg/mL (≈ 8.36 µM); in assay [6], at most 0.05 µg/mL. The minimal inhibitory concentration (MIC) in assay [7] is above 100 µg/mL; in assay [8] it was 0.1 µg/mL (≈ 0.134 µM).
In the case of `Cc1c(OCC(F)(F)F)ccnc1C[S+]([O-])c1nc2ccccc2[nH]1` (stereo not shown) [lansoprazole, reference compound], the MIC in assay [1] is 12.5 µg/mL (≈ 33.8 µM); in assay [2], above 100 µg/mL; in assay [3], above 100 µg/mL; in assay [4] it was above 100 µg/mL; in assay [5], above 100 µg/mL; in assay [6] it was above 100 µg/mL. Besides, the MIC in assay [7] and in assay [8] was above 100 µg/mL in each case.
With `O=C(CSc1ccnc2ccccc12)c1ccc(N2CCOCC2)cc1` [Compound 11, 4-[2-(4-Morpholinophenyl)-2-oxoethylthio]quinoline], the minimum inhibitory concentration (MIC) in assay [1] was 0.0125 µg/mL (≈ 0.0343 µM); in assay [2] it was above 100 µg/mL; in assay [3], above 100 µg/mL; in assay [4] it was above 100 µg/mL; in assay [5], above 100 µg/mL; in assay [6], above 100 µg/mL. Also, the minimal inhibitory concentration (MIC) in assay [7] and in assay [8] was above 100 µg/mL throughout.
Regarding `O=C(CSc1ccnc2ccccc12)c1ccc(N2CCCCC2)cc1` [Compound 22, 4-[2-(4-Piperidinophenyl)-2-oxoethylthio]quinoline], the minimum inhibitory concentration (MIC) was 0.0062 µg/mL (≈ 0.0171 µM) in assay [1]; above 100 µg/mL in assay [2]; above 100 µg/mL in assay [3]; above 100 µg/mL in assay [4]; above 100 µg/mL in assay [5]; above 100 µg/mL in assay [6]. The MIC in assay [7] and in assay [8] was above 100 µg/mL throughout.
As to `CN(C)c1ccc(CCSc2ccnc3ccccc23)cc1` [Compound 27, 4-[2-(4-Dimethylaminophenyl)ethylthio]quinoline], the minimal inhibitory concentration (MIC) is 0.1 µg/mL (≈ 0.324 µM) in assay [1]; above 100 µg/mL in assay [2]; above 100 µg/mL in assay [3]; above 100 µg/mL in assay [4]; above 100 µg/mL in assay [5]; above 100 µg/mL in assay [6]. For the same molecule, the MIC in assay [7] was above 100 µg/mL; in assay [8], 50 µg/mL (≈ 162 µM).
For `O=C(CSc1ccnc2ccccc12)c1ccc(N2CCOCC2)c(Br)c1` [Compound 10, 4-[2-(3-Bromo-4-morpholinophenyl)-2-oxoethylthio]-quinoline], the MIC in assay [1] is 0.0031 µg/mL (≈ 0.00699 µM); in assay [2], above 100 µg/mL; in assay [3], above 100 µg/mL; in assay [4], above 100 µg/mL; in assay [5], above 100 µg/mL; in assay [6], above 100 µg/mL. The minimal inhibitory concentration (MIC) in assay [7] and in assay [8] was above 100 µg/mL throughout.
Consider `CC1(C)S[C@@H]2[C@H](NC(=O)[C@H](N)c3ccc(O)cc3)C(=O)N2[C@H]1C(=O)O` [amoxicillin, reference compound], for which the MIC in assay [1] was 0.05 µg/mL (≈ 0.137 µM); in assay [2] it was 0.2 µg/mL (≈ 0.547 µM); in assay [3], 3.13 µg/mL (≈ 8.57 µM); in assay [4], 0.2 µg/mL (≈ 0.547 µM); in assay [5] it was 50 µg/mL (≈ 137 µM); in assay [6] it was at most 0.05 µg/mL. The MIC in assay [7] was above 100 µg/mL; in assay [8] it was 0.1 µg/mL (≈ 0.274 µM).
As for `CC(C)(C)OC(=O)N1CCN(c2ccc(C(=O)CSc3ccnc4ccccc34)cc2)CC1` [Compound 49, 4-[2-[4-(4-tert-Butoxycarbonyl-1-piperazinyl)phenyl]-2-oxoethylthio]quinoline], the MIC is 0.0008 µg/mL (≈ 0.00173 µM) in assay [1]; above 100 µg/mL in assay [2]; above 100 µg/mL in assay [3]; above 100 µg/mL in assay [4]; above 100 µg/mL in assay [5]; above 100 µg/mL in assay [6]. For the same molecule, the minimal inhibitory concentration (MIC) in assay [7] and in assay [8] was above 100 µg/mL in each case.
Take `O=C(CSc1ccnc2ccccc12)c1ccc2ccccc2c1` [Compound 2, 4-[2-(2-Naphtyl)-2-oxoethylthio]quinoline]: the minimal inhibitory concentration (MIC) in assay [1] is 0.2 µg/mL (≈ 0.607 µM); in assay [2], above 100 µg/mL; in assay [3], above 100 µg/mL; in assay [4], above 100 µg/mL; in assay [5] it was above 100 µg/mL; in assay [6], above 100 µg/mL. Also, the minimal inhibitory concentration (MIC) in assay [7] and in assay [8] was above 100 µg/mL in each case.
`CC(C)(C)C(=O)N1CCN(c2ccc(C(=O)CSc3ccnc4ccccc34)cc2)CC1` [Compound 52, 4-[2-[4-(4-Pivaloyl-1-piperazinyl)phenyl]-2-oxoethylthio]quinoline] showed an MIC in assay [1] of 0.0008 µg/mL (≈ 0.00179 µM).
On the same count and under the same terms, the figure for `CN(C)S(=O)(=O)N1CCN(c2ccc(C(=O)CSc3ccnc4ccccc34)cc2)CC1` [Compound 84, 4-[2-(4-(4-Dimethylsulfamoyl-1-piperazinyl)phenyl]-2-oxoethylthio]quinoline] is 0.0016 µg/mL (≈ 0.0034 µM); for `CC(C)(C)C(=O)N1CCC(c2ccc(C(=O)CSc3ccnc4ccccc34)cc2)CC1` [Compound 28, 4-[2-[4-(1-Pivaloyl-4-piperidinyl)phenyl]-2-oxoethylthio]-quinoline] it is 0.0008 µg/mL (≈ 0.00179 µM).
Still for that read-out and setting: for `CSc1ccc2c(SCc3ccc(N4CCN(C=O)CC4)cc3)ccnc2c1` [Compound 63, 4-[4-(4-Formyl-1-piperazinyl)benzylthio]-7-methylthioquinoline] the value was 0.1 µg/mL (≈ 0.244 µM).
As for `CN(C)c1ccc(C(=O)CSc2ccnc3ccccc23)cc1` [Compound 26, 4-[2-(4-Dimethylaminophenyl)-2-oxoethylthio]quinoline], the minimal inhibitory concentration (MIC) was 0.1 µg/mL (≈ 0.31 µM) in assay [1]; above 100 µg/mL in assay [2]; above 100 µg/mL in assay [3]; above 100 µg/mL in assay [4]; above 100 µg/mL in assay [5]; above 100 µg/mL in assay [6]. Also, the minimal inhibitory concentration (MIC) in assay [7] and in assay [8] was above 100 µg/mL each time.
In the case of `COc1cc(C(=O)CSc2ccnc3ccccc23)ccc1OCC1CO1` (stereo not shown) [Compound 57, 4-[2-[3-Methoxy-4-(2,3-epoxypropoxy)phenyl]-2-oxoethylthio]quinoline], it took 0.39 µg/mL (≈ 1.02 µM) to inhibit growth in assay [1] (MIC).
On the same count and under the same terms, for `CC(C)CN1CC(=O)N(c2ccc(C(=O)CSc3ccnc4ccccc34)cc2)C1` [Compound 71, 4-[2-[4-(3-Isobutyl-5-oxo-1-imidazolidinyl)phenyl]-2-oxoethylthio]quinoline] the value was 0.05 µg/mL (≈ 0.119 µM); for `CC(C)(C)CN1CCN(c2ccc(C(=O)CSc3ccnc4ccccc34)cc2Br)CC1` [Compound 66, 4-[2-[3-Bromo-4-(4-neopentyl-1-piperazinyl)phenyl]-2-oxoethylthio]quinoline], 0.0004 µg/mL (≈ 0.00078 µM).
Regarding `CC(C)(C)c1ccc(C(=O)CSc2ccnc3ccccc23)cc1` [Compound 5, 4-[2-(4-tert-Butylphenyl)-2-oxoethylthio]quinoline], the minimum inhibitory concentration (MIC) in assay [1] was 0.025 µg/mL (≈ 0.0745 µM); in assay [2], above 100 µg/mL; in assay [3] it was above 100 µg/mL; in assay [4] it was above 100 µg/mL; in assay [5], above 100 µg/mL; in assay [6], above 100 µg/mL. The MIC in assay [7] and in assay [8] was above 100 µg/mL throughout.
`CSc1ccc2c(SCc3ccc(NCCC(C)CC(C)(C)C)cc3)ccnc2c1` (stereo not shown) [Compound 37, 4-[4-(3,5,5-Trimethylhexylamino)benzylthio]-7-methylthioquinoline] returned an MIC in assay [1] of 0.2 µg/mL (≈ 0.456 µM).
Still for that read-out and setting: for `CC(C)(C)OC(=O)N1CCN(c2ccc(C(=O)CSc3ccnc4ccccc34)cc2Br)CC1` [Compound 14, 4-[2-[3-Bromo-4-(4-tert-butoxycarbonyl-1-piperazinyl)-phenyl]-2-oxoethylthio]quinoline] the value was 0.0016 µg/mL (≈ 0.00295 µM).
